Source: US6191152A, “2-(1,2,4-triazole-1-yl)-1,3,4-thiadiazole derivatives having an effect on the C.N.S. and the heart” (EGIS Gyogyszergyar Rt., priority 1997, dated 2001)

Legend:
[1] = system: isolated rat thoracic aorta; assay: Vascular relaxing effect in potassium chloride (20 mM KCl) contracted isolated rat thoracic aorta; design: species or system rat (male SPRD); settings: for IC50: Rattus norvegicus, 20 mM KCl contracted strips, 37° C., read-out: IC50 (vascular relaxation in isolated rat thoracic aorta)
Description: 1. Measurement of Vascular Relaxing Effect in Potassium Chloride Contracted Isolated rat Thoracic Aorta
Experiments were performed in thoracic aortas obtained from male SPRD rats weighing 250 to 300 g. Thoracic aortas excised from rats killed by decapitation and ensanguination were cleaned of fat and connective tissue, then were immediately placed in carbogenized TYRODE solution. The composition of the normal TYRODE solution was the following (in mM): NaCl 114.7, KCl 3.7, CaCl2 3.6, MgCl2 0.49, NaHCO3 19.9, NaH2 PO4 0.32, glucose 5.1.
Two mm wide and 20 to 25 mm long strips were cut from the aortas along a helical line at 45° angle. Aortic strips were mounted vertically between two cotton threads in 10 ml organ chambers, the lower threads were attached to the organ chambers and the upper threads were connected to isometric force transducers. The strips were incubated under 1 g resting tension at 37° C. for 120 minutes, then resting vascular tone was recorded. Then the strips were contracted with a TYRODE solution containing 20 mM KCl. The composition of the high potassium TYRODE solution was the following (in mM): NaCl 94.7, KCl 20, CaCl2 3.6, MgCl2 0.49, NaHCO3 19.9, NaH2 PO4 0.32, glucose 5.1.
When stable vascular tone developed, increasing doses of the test substance were added to the organ bath. The effects of each test substance were measured at least in 3 tissue preparations obtained from different animals. Decreases in vascular tension caused by the test substances were expressed as percentage changes and IC50 for each tissue preparation was determined by sigmoid (in few casses linear) curve fitting.
For comparison, cromakalim i.e. (±)-trans-3,4-dihydro-3-hydroxy-2,2-dimethyl-4-(2-oxo-1-pyrrolidinyl)-2H-1-benzopyrane-6-carbonitrile was used.

[2] = system: isolated guinea-pig papillary muscle; assay: Effective refractory period (ERP) prolonging effect in isolated guinea-pig right ventricular papillary muscle, in vitro; design: species or system guinea-pig (male); settings: for ERP change at 10^-4 M / ERP change at 10^-5 M: 30 minutes incubation, mean of at least four preparations
Source text: 2. Measurement of Effective Refracter Period in Guinea-pig Right Ventricular Papillary Muscle, in Vitro.
Effective refracter period (ERP) is regarded to be the shortest time interval between two identical electrical stimuli when both can evoke a twitch in the papillary muscle. A second stimulus applied earlier than the ERP is not effective. Compounds prolonging ERP can have antiarrhythmic effect. This method is useful primarily for testing antiarrhythmic agents belonging to class III according to the Vaughan Williams classification /Bexton, R. S. and Camm. A., J. Pharmacol. Ther., 17, 315 (1982)/.
Experiments were performed in a Schuler-type organ bath system having 4 channels. Male guinea-pigs weighing 450 to 750 g were killed by a blow on the head and ensanguinated. The heart was rapidly excised and papillary muscles of appropriate size (lower than 1 mm in diameter) were dissected from the right ventricle. The preparations were vertically mounted in 20 ml organ chambers containing Krebs solution bubbled with carbogen (consisting of 95% of O2 and 5% of CO2) and maintained at 35° C. The upper end of the muscles was connected with cotton threads to force-displacement transducers coupled to a recorder for measuring isometric tension via DC-bridge amplifiers. The lower end of the papillary muscles was pinned to the organ chamber with a silver hook that was also used as a stimulating electrode. The other electrode was immersed into the organ bath and had no direct contact with the preparation. The composition of the Krebs solution was the following (in mm): NaCl 118, KCl 4.8, NaHCO3 27.2, glucose 11.1, MgSO4 1.2, KH2 PO4 1, CaCl2 2.6, pH=7.4.
The preparations were equilibrated for 120 minutes under a resting tension of 1 g. During equilibration they were electrically stimulated at a rate of 2 Hz with 1 msec rectangular pulses that were above the diastolic threshold voltage by 10%. ERP was determined using a standard extrastimulus technique. Extrastimuli (S2) were interjected between the normal stimuli (S1) in such a way that the S1 -S2 interval was initially below the refracter period of the tissue. The S1 -S2 interval was then widened by increments of 1 msec until the extrastimulus (S2) evoked twitch of the papillary muscle. The force of the twitch caused by S2 is larger than those caused by normal (S1) stimuli (postextrasystolic potentiation). The equipment measured the shortest S1 -S2 interval at which the extrastimulus evoked a twitch that was larger than the force of control twitches by 25%. This interval is equivalent with the ERP.
The experimental protocol was as follows:
Two control ERP measurements were performed 20 minutes apart, then appropriate amount of the test substance was added to produce 10^-4 M concentration in the bathing solution. After 30 minutes incubation with the test substance, two ERP measurements were performed 30 minutes apart.
When the test substance increased ERP at 10^-4 M by 40 msec or more, its effect on ERP was tested also at 10^-5 M.
The effect of the test substances was characterized by the difference between the first treated and the second control measurements. Individual data obtained from four different preparations, at least, were averaged. The reference substance used was sotalol i.e. N-[4-/1-hydroxy-2-(1-methylethylamino)ethyl/plenyl]methane sulfonamide.

CN(C)CCCOc1ccccc1-c1nnc(-n2nc(N(C)C)nc2N)s1 [Example 29, 2-(5-Amino-3-dimethylamino-1H-1,2,4-triazole-1-yl)-5-/ 2-(3-dimethylaminopropoxy)phenyl/-1,3,4-thiadiazole]
vascular relaxation of isolated rat thoracic aorta (in words) [1]: relaxed isolated rat thoracic aorta more effectively than the K^+ channel opener and Ca^2+ channel blocker reference substances | IC50 [1]: 71 nM

COc1ccc(CCN(C)CCCOc2ccc(-c3nnc(-n4nc(SC)nc4N)s3)cc2)cc1OC [Example 108, 2-(5-Amino-3-methylthio-1H-1,2,4-triazole-1-yl)-5-{4-[3-methyl-3-/ 2-(3,4-dimethoxyphenylethyl)amino/propoxy]phenyl}-1,3,4-thiadiazole]
IC50 [1]: > 10000 nM | ERP change at 10^-4 M [2]: 66 msec | ERP change at 10^-5 M [2]: 29 msec

COc1ccc(CCN(C)CCCOc2ccccc2-c2nnc(-n3nc(SC(C)C)nc3N)s2)cc1OC [Example 101, 2-/5-Amino-3-(1-methylethylthio)-1H-1,2,4-triazole-1-yl/-5-{2-[3-methyl-3-/2-(3,4-dimethoxyphenylethyl)amino/propoxy]-phenyl}-1,3,4-thiadiazole]
vascular relaxation of isolated rat thoracic aorta (in words) [1]: relaxed isolated rat thoracic aorta more effectively than the K^+ channel opener and Ca^2+ channel blocker reference substances | IC50 [1]: 75 nM

CSc1nc(N)n(-c2nnc(-c3ccccc3OCCCN3CCCC3)s2)n1 [Example 43, 2-(5-Amino-3-methylthio-1H-1,2,4-triazole-1-yl)-5-/ 2-(3-pyrrolidinopropoxy)phenyl/-1,3,4-thiadiazole]
ERP change at 10^-4 M [2]: 66 msec | ERP change at 10^-5 M [2]: 34 msec

CN(C)CCCOc1ccccc1-c1nnc(-n2nc(N3CCCCC3)nc2N)s1 [Example 32, 2-(5-Amino-3-piperidino-1H-1,2,4-triazole-1-yl)-5-/ 2-(3-dimethylaminopropoxy)phenyl/-1,3,4-thiadiazole]
ERP prolongation (in words) [2]: remarkable also at 10^-5 M | ERP change at 10^-4 M [2]: 155 msec | ERP change at 10^-5 M [2]: 158 msec

CC1(C)Oc2ccc(C#N)cc2[C@@H](N2CCCC2=O)[C@@H]1O (racemic) [cromakalim, (±)-trans-3,4-dihydro-3-hydroxy-2,2-dimethyl-4-(2-oxo-1-pyrrolidinyl)-2H-1-benzopyrane-6-carbonitrile, reference compound]
IC50 [1]: 130 nM

COc1ccc(CCN(C)CCCOc2ccccc2-c2nnc(-n3nc(N4CCCCC4)nc3N)s2)cc1OC [Example 99, 2-(5-Amino-3-piperidino-1H-1,2,4-triazole-1-yl)-5-{2-[3-methyl-3-/ 2-(3,4-dimethoxyphenylethyl)amino/-propoxy]phenyl}-1,3,4-thiadiazole]
IC50 [1]: 130 nM

CN(C)CCCOc1ccc(-c2nnc(-n3nc(N4CCN(C)CC4)nc3N)s2)cc1 [Example 47, 2-/5-Amino-3-(4-methylpiperazine-1-yl)-1H-1,2,4-triazole-1-yl/-5-/ 4-(3-dimethylaminopropoxy)phenyl/-1,3,4-thiadiazole]
ERP change at 10^-4 M [2]: 123 msec | ERP change at 10^-5 M [2]: 2 msec

CC(C)Sc1nc(N)n(-c2nnc(-c3ccccc3OCCCN(C)C)s2)n1 [Example 30, 2-/5-Amino-3-(2-methylethylthio)-1H-1,2,4-triazole-1-yl/-5-/ 2-(3-dimethylaminopropoxy)phenyl/-1,3,4-thiadiazole]
vascular relaxation of isolated rat thoracic aorta (in words) [1]: relaxed isolated rat thoracic aorta more effectively than the K^+ channel opener and Ca^2+ channel blocker reference substances | IC50 [1]: 68 nM

CC(C)NCC(O)c1ccc(NS(C)(=O)=O)cc1 (centres unmarked) [sotalol, N-[4-/1-hydroxy-2-(1-methylethylamino)ethyl/plenyl]methane sulfonamide, reference compound]
ERP change at 10^-4 M [2]: 47 msec | ERP change at 10^-5 M [2]: 26 msec

C=CCN(CC=C)c1nc(N)n(-c2nnc(-c3ccccc3OCCCN(C)C)s2)n1 [Example 49, 2-(5-Amino-3-diallylamino-1H-1,2,4-triazole-1-yl)-5-/ 2-(3-dimethylaminopropoxy)phenyl/-1,3,4-thiadiazole]
IC50 [1]: 170 nM

COc1ccc(CCN(C)CCCOc2cccc(-c3nnc(-n4nc(SC)nc4N)s3)c2)cc1OC [Example 105, 2-(5-Amino-3-methylthio-1H-1,2,4-triazole-1-yl)-5-{3-[3-methyl-3-/ 2-(3,4-dimethoxyphenylethyl)amino/propoxy]phenyl}-1,3,4-thiadiazole]
IC50 [1]: > 1000 nM | ERP change at 10^-4 M [2]: 62 msec | ERP change at 10^-5 M [2]: 14 msec

CCN(CC)CCOc1ccc(-c2nnc(-n3nc(SC)nc3N)s2)cc1 [Example 36, 2-(5-Amino-3-methylthio-1H-1,2,4-triazole-1-yl)-5-/ 4-(2-diethylaminoethoxy)phenyl/-1,3,4-thiadiazole]
ERP change at 10^-4 M [2]: 53 msec | ERP change at 10^-5 M [2]: 15 msec
